# Measured values taken from patent US5688936A, “Vesicle membrane transport proteins” (priority 1993, dated 1997).
# “Also recorded” adds a separate entry of the source. Where two headings read alike, the source gives them in different places.
# T1: chromaffin granule amine transport protein (Rattus norvegicus, UniProt Q01818)
# T1 sequence (Q01818 1-521): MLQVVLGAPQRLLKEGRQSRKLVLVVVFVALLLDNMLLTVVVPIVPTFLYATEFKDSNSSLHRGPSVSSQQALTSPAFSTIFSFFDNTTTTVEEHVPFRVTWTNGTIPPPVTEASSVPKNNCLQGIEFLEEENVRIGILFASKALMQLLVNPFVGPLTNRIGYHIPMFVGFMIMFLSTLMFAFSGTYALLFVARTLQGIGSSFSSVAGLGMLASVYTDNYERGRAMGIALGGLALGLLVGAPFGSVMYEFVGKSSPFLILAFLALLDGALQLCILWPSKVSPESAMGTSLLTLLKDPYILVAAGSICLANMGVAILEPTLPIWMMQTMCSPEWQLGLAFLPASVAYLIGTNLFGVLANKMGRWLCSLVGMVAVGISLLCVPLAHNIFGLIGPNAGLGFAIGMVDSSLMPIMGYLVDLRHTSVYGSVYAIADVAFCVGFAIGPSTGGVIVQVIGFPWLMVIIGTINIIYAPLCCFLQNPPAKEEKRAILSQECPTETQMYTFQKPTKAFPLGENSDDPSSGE
# Assays:
# [1] = molecular target: T1, chromaffin granule amine transport protein; experiment: Quantitative [3H]dopamine transport assay with mpp^res CHO cell homogenate; assay type: biochemical; settings: dose-response, 2-minute incubation (FIG. 15C)
# Procedure: The quantity of label bound is measured after filtration of the assay mixture. Preferably, the label is a radioactive label. […] This can be done by standard graphic kinetic techniques such as the Lineweaver-Burke plot.
# Incubation was performed at 29° C. for the time period indicated (from 2 minutes to 30 minutes). The assay was terminated by dilution in cold assay buffer followed by filtration through 0.2 μm Supor™ 200 membranes (Gelman, Ann Arbor, Mich.) and the bound radioactivity was measured. The cells used for the quantitative assay are selected in MPP^+ or screened with antibody to ensure that they express the transporter at high levels, as it is difficult to measure activity in this assay at low levels of transporter expression.
# The quantitative transport test was performed as described above on wild-type CHO cells and mpp^res CHO cells.
# [2] = tested on: plasma membrane monoamine transport activity; settings: cited from earlier work
# monoamine oxidase = settings: cited from earlier work
# idiopathic PD = settings: in vivo, cited from earlier work
# PC12 cells [3] = settings: percent of control uptake ± SD; agent 10 mM; 25 nM [3H]-dopamine, 1 h, 37° C.
# Procedure: (§2) The effects of various pharmacologic agents were tested to determine whether the properties of the protein encoded by the mpp^res cDNA corresponded with those expected for the chromaffin granule amine transport protein. […] The cells were pre-incubated in Krebs-Ringer buffer containing 1 μM pargyline and the dose of the drug indicated for 15 minutes. […] Values were determined from three separate wells and the mean was expressed as percent of control uptake±standard deviation.
# [4] = molecular target: T1, chromaffin granule amine transport protein; experiment: cell-based; assay type: cell-based; settings: for inhibition of vesicular amine uptake/transport (fluorescence assay, in words): concentrations of Table 1
# Procedure: Uptake and cellular compartmentalization of loaded dopamine were performed by growing cells on poly-lysine-coated glass coverslips. […] The cells were then washed three times in 0.1M sodium phosphate, pH 7.4, and incubated at 4° C. in 2% glyoxylic acid/0.5 mg% MgCl2, pH 4.9-5.0 for three minutes as described by de la Torre, J. Neurosci. Meth. 3:1-5 (1980). Briefly, excess solution is wiped off the bottom and edges of the slide using absorbent paper, taking care not to touch the section. The coverslips were then drained thoroughly, dried in air at 45° C. heated to 80° C. for five minutes, inverted over mineral oil on glass slides and examined under fluorescence using the appropriate filters as described by Knigge et al., Brain Res. 120:393-405 (1977). Briefly, the preparations were infiltrated with warm immersion oil and examined in a Leitz MPV2 microspectrofluorometer equipped with Schoffel excitation and emission grating monochromators, photomultipliers, and ratio computing circuitry. Cells were scanned with either monochromatic light (370 nm) or narrow band excitation (S405, BG3) light for the purpose of identifying fluorescence within cells. Ploem illumination was used in combination with a X 63 or X 100 oil immersion objective.
# Dopamine-loaded fluorescence was carried out as described in Example 1. […] Glyoxylic-acid-induced fluorescence was used to determine the intracellular distribution as described above in Example 1. The procedures were the same as described in Example 1 however a pure cDNA clone encoding the vesicle membrane transport protein, selected in the presence of MPP^+, obtained as described herein, was used rather than the primary transformant. […]
# The effects of various pharmacologic agents were tested to determine whether the properties of the protein encoded by the mpp^res cDNA corresponded with those expected for the chromaffin granule amine transport protein. […] The cells were pre-incubated in Krebs-Ringer buffer containing 1 μM pargyline and the dose of the drug indicated for 15 minutes. 25 nM [^3 H]-dopamine was then added in the same buffer and after incubation at 37° C. for one hour, the cells were washed in cold Krebs-Ringer buffer, lysed and counted in Ecolite (ICN) as described by Greene and Rein, Brain Res. 129:247-263 (1978). Values were determined from three separate wells and the mean was expressed as percent of control uptake±standard deviation. […] The dose required to inhibit maximal uptake by 50%, Ki, was estimated from the fluorescence data using a range of concentrations for each agent.
# [5] = tested on: vesicular amine transport protein; settings: cited from earlier work
# amine stores = settings: in vivo; cited from earlier work
# PC12 cells [6] = experiment: cells; settings: Rattus norvegicus, PC-12, 1 h, read-out: [^3 H]-Dopamine Uptake (PC12)
# Procedure: as §2
# chromaffin cells = settings: co-incubation with MPP+; cited from earlier work
# dopamine nerve terminals = settings: mice; cited from earlier work
# central dopamine neurons = settings: primates; cited from earlier work
# [7] = tested on: complex III of the respiratory chain; settings: cited from earlier work
# [8] = tested on: MPP^+ -resistant CHO cells; experiment: MTT cytotoxicity assay in MPP+-resistant transfected CHO cells; assay type: cell-based, Chinese hamster
# Procedure: (§1) Differential susceptibility to the respiratory complex I inhibitors MPP^+ and rotenone was shown by measuring toxicity by measuring general cell dehydrogenase activity with reduction of a tetrazolium dye (MTT) in a spectrophotometric plate assay as described by Hansen et al., J. Immunol. Methods 119:203-210 (1989). Briefly, a stock solution of MTT (3,(4,5-dimethylthiazol-2-yl)2,5-diphenyltetrazolium bromide) was dissolved at a concentration of 5 mg/ml in sterile phosphate buffered saline at room temperature. To each well was added 25 μl of the stock solution. After two hours of incubation at 37° C., 100 μl of extraction buffer (20% w/v of SDS in a solution of 50% each dimethylformamide and demineralized water with the pH adjusted to 4.7 with acetic acid and HCl). After an overnight incubation at 37° C., the optical densities at 570 nm were measured using a multiscanner, employing the extraction buffer as the blank. This assay was carried out in triplicate on 96-well plates (NUNC, Denmark). MPP^+ and rotenone at the concentrations indicated in FIG. 6a and 6b, respectively, was added to wild-type and MPP^+ -resistant CHO cells at approximately 50% confluence, and toxicity was assayed after 2-3 days by measuring general cell dehydrogenase activity with the reduction of the tetrazolium dye MTT (3,(4,5-dimethylthiazol-2-yl)2,5-diphenyl-tetrazolium bromide). After addition of the dye at a final concentration of 1 mg/ml, the cells were incubated for two hours at 37° C. and the formazan product was solubilized in 10% sodium dodecyl sulfate (SDS). The plates were maintained at 37° C. for an additional twenty hours and the optical density was determined in an ELISA plate reader at a test wavelength of 570 nm, a reference wavelength of 630 nm and a calibration setting of 1.99. All determinations were performed in triplicate and expressed as the mean, with the error bars representing standard deviation (FIG. 6a and 6b).
# To determine whether an alteration in the process of respiration was responsible for the resistance to MPP^+, the effects of other known respiratory inhibitors were examined. […] Thus, if the resistance were due to a change in the site of action, the transfected cells should also show resistance to rotenone. […] However, rotenone is considered to have its selected effect on respiration at relatively low doses, and an additional, less specific effect at higher doses.
# Therefore, the toxicity of MPP^+ to transfected cells in the presence of 1 μM reserpine was examined.
# wild-type CHO cells = experiment: MTT cytotoxicity assay in wild-type CHO cells; assay type: cell-based, Chinese hamster; settings: CHO cells (FIG. 6b)
# Procedure: as §1
# respiratory complex I = settings: cited from earlier work
# midbrain cells = settings: in vitro; cited from earlier work
molecule,measurement,setting,value
COC(=O)[C@H]1[C@@H](OC(=O)c2ccccc2)C[C@@H]2CC[C@H]1N2C [cocaine],inhibition of dopamine transport,[1],no inhibition
same,inhibition of plasma membrane monoamine transport,[2],inhibiting this activity
C#CCN(C)C(C)Cc1ccccc1 (stereo not shown) [deprenyl],inhibition of monoamine oxidase,monoamine oxidase,"inhibits the enzyme that activates MPTP, monoamine oxidase"
same,rate of progression of Parkinson's disease,idiopathic PD,slow the rate of progression of the disease
same,rate of progression of Parkinson's disease,idiopathic PD; listed as Deprenyl,appears to slow the rate of progression
"Cl.N [NH4 Cl, ammonium chloride]",[^3 H]-Dopamine Uptake (PC12),PC12 cells [3],51 ± 3%
same,"inhibition of vesicular amine uptake/transport (fluorescence assay, in words)",[4],inhibited uptake only partially
COc1cc2c(cc1OC)C1CC(=O)C(CC(C)C)CN1CC2 (stereo not shown) [tetrabenazine],inhibition of vesicular amine transport,[5],an inhibitor of vesicular uptake; also recorded: inhibit this transport activity
same,inhibition of dopamine transport,[1],inhibition by both reserpine and tetrabenazine
same,potency to deplete central rather than adrenal amine stores,amine stores,greater potency of that drug to deplete central rather than adrenal amine stores
same,activity at 100 µM,PC12 cells [6],45 ± 2%
same,effect on MPP+ toxicity to chromaffin cells,chromaffin cells,chromaffin cell toxicity was potentiated
same,"inhibition of vesicular amine uptake/transport (fluorescence assay, in words)",[4],"inhibited transport, but at high concentrations"
same,Ki,"[4]; dose required to inhibit maximal uptake by 50%, estimated from fluorescence data, read-out: Ki (est)",100 µM
"CN1CC=C(c2ccccc2)CC1 [1-methyl-4-phenyl-1,2,3,6-tetrahydropyridine]",damage to dopamine nerve terminals,dopamine nerve terminals,dopamine nerve terminals in mice
same,damage to central dopamine neurons,central dopamine neurons,Damage to central dopamine neurons
oligomycin,inhibition of respiratory complex III,[7],inhibits complex III
same,oligomycin toxicity pattern,[8]; wild-type vs resistant transfected CHO cells,same pattern of toxicity in wild-type and in resistant transfected CHO cells
C=C(C)[C@H]1Cc2c(ccc3c2O[C@@H]2COc4cc(OC)c(OC)cc4[C@@H]2C3=O)O1 [rotenone],rotenone toxicity pattern (MTT assay),wild-type CHO cells,biphasic pattern
same,inhibition of respiratory complex I,respiratory complex I,inhibits complex I
same,resistance of the transfectant to rotenone,[8]; vs wild-type,no substantial resistance
"brain-derived neurotrophic factor (BDNF): neurotrophic factors such as brain-derived neurotrophic factor (BDNF) (protein, UniProt P23560 19-247, looked up) Neurotrophic factor BDNF …: APMKEANIRGQGGLAYPGVRTHGTLESVNGPKAGSRGLTSLADTFEHVIEELLDEDQKVRPNEENNKDADLYTSRVMLSSQVPLEPPLLFLLEEYKNYLDAANMSMRVRRHSDPARRGELSVCDSISEWVTAADKKTAVDMSGGTVTVLEKVPVSKGQLKQYFYETKCNPMGYTKEGCRGIDKRHWNSQCRTTQSYVRALTMDSKKRIGWRFIRIDTSCVCTLTIKRGR",protection of midbrain cells from MPP+,midbrain cells,can protect midbrain cells from MPP^+ in vitro
